Test results: patent publication US20060100243A1 (priority 2004, published 2006)
Entries after “also recorded” stand apart in the source; their conditions may differ. Read-outs that look alike come from different tables or passages of the source.

Assays:
[1] = prescribed doses; cited from earlier work
[2] = target: T1, recombinant human norepinephrine transporter (Homo sapiens, UniProt P23975); assay: cell-based; conditions: HEK 293 cells
T1 construct: expressed in transfected cells

[3] = target: T1, recombinant human norepinephrine transporter; assay: biochemical; assay type: binding; conditions: HEK 293 cells
male Swiss-Webster mice = assay: dose response study of induced locomotor stimulation; conditions: for time of occurrence of stimulant effects following injection: at the active doses
[4] = target: T2, recombinant human serotonin transporter (Homo sapiens, UniProt P31645); assay: biochemical; assay type: binding
T2 construct: expressed in transfected cells
T2 sequence (P31645 whole entry): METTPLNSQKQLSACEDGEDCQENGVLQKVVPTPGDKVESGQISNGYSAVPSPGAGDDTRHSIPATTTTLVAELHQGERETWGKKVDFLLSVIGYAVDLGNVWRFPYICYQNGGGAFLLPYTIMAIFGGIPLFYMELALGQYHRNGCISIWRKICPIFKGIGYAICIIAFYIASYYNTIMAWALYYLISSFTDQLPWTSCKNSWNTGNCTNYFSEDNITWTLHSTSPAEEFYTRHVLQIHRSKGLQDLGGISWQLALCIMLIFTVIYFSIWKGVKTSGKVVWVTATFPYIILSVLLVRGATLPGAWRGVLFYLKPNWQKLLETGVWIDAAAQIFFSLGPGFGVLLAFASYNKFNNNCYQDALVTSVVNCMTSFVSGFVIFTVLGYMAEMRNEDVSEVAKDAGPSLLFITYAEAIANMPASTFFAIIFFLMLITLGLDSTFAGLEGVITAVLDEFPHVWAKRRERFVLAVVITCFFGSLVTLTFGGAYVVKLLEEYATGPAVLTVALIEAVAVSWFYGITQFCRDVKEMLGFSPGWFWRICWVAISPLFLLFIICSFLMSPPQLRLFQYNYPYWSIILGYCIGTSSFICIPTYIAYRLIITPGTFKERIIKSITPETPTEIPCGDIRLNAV

[5] = target: T2, recombinant human serotonin transporter; assay: serotonin (5HT) reuptake inhibition in HEK 293 cells; assay type: cell-based; conditions: SEROTONIN 5HT REUPTAKE (IC50), HEK 293 cells
[6] = target: T3, recombinant human dopamine transporter (Homo sapiens, UniProt Q01959); assay: dopamine reuptake inhibition in HEK 293 cells; assay type: cell-based; conditions: for IC50: RR/SS racemates table, HEK 293 cells
T3 construct: expressed in transfected cells
T3 sequence (Q01959 whole entry): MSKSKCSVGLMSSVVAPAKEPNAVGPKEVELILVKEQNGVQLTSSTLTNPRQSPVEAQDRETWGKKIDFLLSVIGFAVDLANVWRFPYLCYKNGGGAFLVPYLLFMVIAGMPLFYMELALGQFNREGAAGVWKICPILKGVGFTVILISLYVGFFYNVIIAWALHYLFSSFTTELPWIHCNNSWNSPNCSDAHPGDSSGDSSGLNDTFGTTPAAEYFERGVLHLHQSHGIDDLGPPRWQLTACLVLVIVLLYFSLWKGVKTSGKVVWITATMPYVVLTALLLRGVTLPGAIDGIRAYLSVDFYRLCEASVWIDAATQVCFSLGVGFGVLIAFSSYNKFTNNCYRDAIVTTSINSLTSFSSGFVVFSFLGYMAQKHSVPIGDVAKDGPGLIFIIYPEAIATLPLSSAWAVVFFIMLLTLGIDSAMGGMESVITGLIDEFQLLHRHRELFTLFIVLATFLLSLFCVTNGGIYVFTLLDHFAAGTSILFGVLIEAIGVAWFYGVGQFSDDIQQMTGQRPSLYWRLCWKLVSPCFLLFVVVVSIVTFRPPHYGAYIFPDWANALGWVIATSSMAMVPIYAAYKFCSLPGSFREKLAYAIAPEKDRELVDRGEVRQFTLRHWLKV

[7] = target: T3, recombinant human dopamine transporter; assay: [125I]RTI-55 binding, dopamine transporter in HEK 293 cells; conditions: for Ki: RR/SS racemates table, HEK 293 cells
[8] = RR/SS racemates table, read-out: NOREPINEPHRINE NE REUPTAKE (IC50)
[9] = RR/SS racemates table, read-out: NOREPINEPHRINE [I125]-RTI-55 BINDING (Ki)

T1 sequence (P23975 whole entry): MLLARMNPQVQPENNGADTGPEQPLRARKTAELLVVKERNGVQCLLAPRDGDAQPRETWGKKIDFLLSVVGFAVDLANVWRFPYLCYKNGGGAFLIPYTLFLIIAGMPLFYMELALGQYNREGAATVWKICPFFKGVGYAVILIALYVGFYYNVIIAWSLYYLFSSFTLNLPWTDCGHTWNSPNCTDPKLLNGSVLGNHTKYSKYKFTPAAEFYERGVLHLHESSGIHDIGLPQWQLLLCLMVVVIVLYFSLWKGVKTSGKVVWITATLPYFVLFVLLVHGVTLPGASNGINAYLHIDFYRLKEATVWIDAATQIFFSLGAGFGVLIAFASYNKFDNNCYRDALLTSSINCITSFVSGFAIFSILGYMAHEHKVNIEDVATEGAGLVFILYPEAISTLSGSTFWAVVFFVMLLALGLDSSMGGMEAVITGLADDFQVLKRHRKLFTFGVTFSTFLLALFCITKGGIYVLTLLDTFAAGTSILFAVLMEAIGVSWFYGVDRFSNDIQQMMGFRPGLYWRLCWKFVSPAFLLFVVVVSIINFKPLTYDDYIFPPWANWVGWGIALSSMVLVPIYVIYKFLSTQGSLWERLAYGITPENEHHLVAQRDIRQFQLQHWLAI

Structure (SMILES): COC(=O)C(c1ccccc1)C1CCCCN1 (stereo not drawn) [MPH, methylphenidate, reference compound]
- time of maximum drug concentration after oral administration [1]: about two hours
- IC50 ([2]; NORE[…] REUPTAKE (IC50), RR/SS racemates table): 38 ± 4 nM
- IC50 ([2]; NORE[…] REUPTAKE (IC50), RS/SR racemates table): 38 ± 4 nM
- Ki ([3]; NOREPINEPHRINE [I125]-RTI-55 BINDING (Ki), RR/SS racemates table): 1800 ± 800 nM
- Ki ([3]; NOREPINEPHRINE [I125]-RTI-55 BINDING (Ki), RS/SR racemates table): 1800 ± 800 nM
- time of occurrence of stimulant effects following injection (male Swiss-Webster mice; mice, IP): ≤ 10 min
- duration of stimulant effects (male Swiss-Webster mice; mouse, in vivo): up to 4 hours
- binding to or reuptake at the serotonin transporter [4]: neither MPH nor the MPH analogs demonstrated significant binding to or reuptake at the serotonin transporter
- Ki ([4]; SEROTONIN [I125]-RTI-55 BINDING (Ki)): 40000 ± 8000 nM
- IC50 ([5]; RR/SS racemates table): 55000 ± 16000 nM
- IC50 ([5]; RS/SR racemates table): 55000 ± 16000 nM

Structure (SMILES): CC(C)CC(c1ccc(Cl)cc1)C1CCCCN1 (racemic) [Sample D]
- IC50 [2, 8]: 120 ± 40 nM
- Ki [3, 9]: 840 ± 130 nM
- duration of stimulant effects (male Swiss-Webster mice; mice, IP, 3 mg/kg): up to 4 hours
- duration of stimulant effects (male Swiss-Webster mice; mice, IP, 10 mg/kg): ≤ 5 h
- duration of stimulant effects (male Swiss-Webster mice; mice, IP, 30 mg/kg): over 8 hours
- time of occurrence of stimulant effects following injection (male Swiss-Webster mice; mice, IP): at least 20 minutes
- IC50 ([6]; read-out: DOPAMINE DA REUPTAKE (IC50)): 8.6 ± 2.9 nM
- Ki ([7]; read-out: DOPAMINE [I125]-RTI-55 BINDING (Ki)): 16 ± 4 nM
- potency at binding to the dopamine transporter and blocking dopamine reuptake ([7]; in words, binding and reuptake, compared with MPH / other samples): enhanced potency; also recorded: most potent

Structure (SMILES): COC(=O)[C@H]1[C@@H](OC(=O)c2ccccc2)C[C@@H]2CC[C@H]1N2C [cocaine]
- period of maximal stimulant effects (male Swiss-Webster mice; mice, IP, 20 mg/kg): ≤ 30 min
- duration of stimulant effects (male Swiss-Webster mice; mice, IP, 10, 20, and 40 mg/kg): up to 2 hours
- time of occurrence of stimulant effects following injection (male Swiss-Webster mice; mice, IP): ≤ 10 min

Structure (SMILES): CC(C)CC(c1ccc(Cl)c(Cl)c1)C1CCCCN1C (single isomer, unassigned) [O]
- IC50 [2, 8]: 29 ± 3 nM
- Ki [3, 9]: 190 ± 60 nM
- Ki ([4]; RR/SS racemates table, HEK 293 cells, read-out: SEROTONIN [I125]-RTI-55 BINDING (Ki)): 1300 ± 200 nM
- IC50 ([6]; DOPAMINE DA REUPTAKE (IC50)): 13 ± 4 nM
- NE/DA REUPTAKE ([6]; ratio of NE/DA reuptake IC50, selectivity for dopamine over norepinephrine transporter): 2.2
- IC50 ([5]; RR/SS racemates table): 1400 ± 500 nM
- Ki ([7]; DOPAMINE [I125]-RTI-55 BINDING (Ki)): 6.6 ± 0.9 nM
